17 compounds from patent US12440496B2, “Natriuretic peptide receptor a agonists useful for the treatment of cardiometabolic diseases, kidney disease and diabetes” (Merck Sharp & Dohme LLC, priority 2019, dated 2025) can be followed below.

As usually defined, the EC50 is the concentration at which the effect is half-maximal. A low value points to greater potency.

The target of the test is T1, hNPRA (Homo sapiens, UniProt P16066).
T1 construct: expressed in transfected cells
T1 sequence (P16066 33-1061): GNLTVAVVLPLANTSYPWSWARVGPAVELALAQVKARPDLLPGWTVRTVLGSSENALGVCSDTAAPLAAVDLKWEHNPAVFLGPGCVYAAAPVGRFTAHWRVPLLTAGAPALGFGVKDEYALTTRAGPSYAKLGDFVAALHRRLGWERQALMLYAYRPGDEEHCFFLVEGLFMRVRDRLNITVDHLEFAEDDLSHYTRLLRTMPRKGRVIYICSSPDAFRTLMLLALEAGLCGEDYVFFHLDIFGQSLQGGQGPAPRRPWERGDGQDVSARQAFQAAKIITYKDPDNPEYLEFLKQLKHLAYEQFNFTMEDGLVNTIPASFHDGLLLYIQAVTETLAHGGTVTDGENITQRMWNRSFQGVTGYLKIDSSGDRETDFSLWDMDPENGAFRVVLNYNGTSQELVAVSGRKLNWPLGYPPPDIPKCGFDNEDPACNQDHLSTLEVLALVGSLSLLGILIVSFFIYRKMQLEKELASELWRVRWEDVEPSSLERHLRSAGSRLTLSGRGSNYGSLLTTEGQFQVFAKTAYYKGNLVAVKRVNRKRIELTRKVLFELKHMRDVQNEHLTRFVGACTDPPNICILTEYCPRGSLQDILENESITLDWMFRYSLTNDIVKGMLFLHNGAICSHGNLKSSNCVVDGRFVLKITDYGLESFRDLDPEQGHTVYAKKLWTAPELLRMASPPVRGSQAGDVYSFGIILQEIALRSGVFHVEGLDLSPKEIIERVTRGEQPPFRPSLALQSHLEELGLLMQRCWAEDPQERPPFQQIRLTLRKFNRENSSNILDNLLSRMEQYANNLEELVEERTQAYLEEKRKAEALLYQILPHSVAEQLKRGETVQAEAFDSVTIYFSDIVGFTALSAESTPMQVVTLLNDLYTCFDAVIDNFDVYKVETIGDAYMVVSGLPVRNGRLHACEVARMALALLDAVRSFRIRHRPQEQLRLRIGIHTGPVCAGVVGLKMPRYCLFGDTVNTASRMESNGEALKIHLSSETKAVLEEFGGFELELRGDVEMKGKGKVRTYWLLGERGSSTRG
Description: NPRA Functional Cell Assay (cGMP HTRF, NPRA HEK JumpIn stable cells). The class given is cell-based. Conditions: cGMP production, 1 hour at 37° C., 10-point dose response. The gist of the method: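 cGMP HTRF read-out after 1 hour compound treatment at 37° C. of human NPRA-expressing HEK JumpIn cells, 1500 cells/well, in buffer with phosphodiesterase inhibitors IBMX and RO20 (100 uM each). Signal converted to [cGMP] by calibration curve; EC50s fitted by 4-parameter logistic; 50 nM h-ANP as positive response.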
(In general: TR-FRET usually uses a lanthanide donor and a delayed reading to cut background.)
`CC(C)(C)[C@H]1CCc2nc3sc(C(=O)N[C@H](CCN4CCCC(O)C4)c4ccc(-c5ccc(=O)[nH]c5)cc4)cc3cc2C1` (mixture of isomers) [Example 55, rac-(6S)-6-tert-butyl-N-[rac-(1R)-3-(3-hydroxypiperidin-1-ium-1-yl)-1-[4-(6-oxo-1H-pyridin-3-yl)phenyl]propyl]-5,6,7,8-tetrahydrothieno[2,3-b]quinoline-2-carboxamide;formate]: a half-maximal response (EC50) required 792 nM.

Compound `CC(C)(C)[C@H]1CCc2nc3sc(C(=O)N[C@H](CCN4CCCC(C(=O)O)C4)c4ccc(-c5ccc(=O)[nH]c5)cc4)cc3cc2C1` (mixture of isomers) [Example 56, 1-[rac-(3R)-3-[4-(6-oxo-1H-pyridin-3-yl)phenyl]-3-[[rac-(6S)-6-tert-butyl-5,6,7,8-tetrahydrothieno[2,3-b]quinoline-2-carbonyl]amino]propyl]piper idin-1-ium-3-carboxylic acid;formate] displayed an EC50 of 811 nM.

Turning to `CC(C)(C)[C@H]1CCc2nc3sc(C(=O)N[C@H](CCNC4CNC(=O)C4)c4ccc(-c5ccc(=O)[nH]c5)cc4)cc3cc2C1` (mixture of isomers) [Example 57, (5-oxopyrrolidin-3-yl)-[rac-(3R)-3-[4-(6-oxo-1H-pyridin-3-yl)phenyl]-3-[[rac-(6S)-6-tert-butyl-5,6,7,8-tetrahydrothieno[2,3-b]quinoline-2-carbonyl]amino]propyl] ammonium;formate], a half-maximal response (EC50) required 889 nM.

Regarding `CC(C)(C)[C@H]1CCc2nc3sc(C(=O)N[C@H](CCN4CCC(c5nn[nH]n5)C4)c4ccc(-c5ccc(=O)[nH]c5)cc4)cc3cc2C1` (mixture of isomers) [Example 58, rac-(6S)-6-tert-butyl-N-[rac-(1R)-1-[4-(6-oxo-1H-pyridin-3-yl)phenyl]-3-[3-(2H-tetrazol-5-yl)pyrrolidin-1-ium-1-yl]propyl]-5,6,7,8-tetrahydrothieno[2,3-b]quinoline-2-carboxamide;formate], the response was half-maximal at 915 nM (EC50).

For `CC(C)(C)[C@H]1CCc2nc3sc(C(=O)N[C@H](CCN4CCC(F)CC4)c4ccc(-c5ccc(=O)[nH]c5)cc4)cc3cc2C1` (racemic) [Example 59, rac-(6S)-6-tert-butyl-N-[rac-(1R)-3-(4-fluoropiperidin-1-ium-1-yl)-1-[4-(6-oxo-1H-pyridin-3-yl)phenyl]propyl]-5,6,7,8-tetrahydrothieno[2,3-b]quinoline-2-carboxamide;formate], the EC50 is 1010 nM.

Regarding `CC(C)(C)[C@H]1CCc2nc3sc(C(=O)N[C@H](CCN4CCC(C(F)F)CC4)c4ccc(-c5ccc(=O)[nH]c5)cc4)cc3cc2C1` (racemic) [Example 60, rac-(6S)-6-tert-butyl-N-[rac-(1R)-3-[4-(difluoromethyl)piperidin-1-ium-1-yl]-1-[4-(6-oxo-1H-pyridin-3-yl)phenyl]propyl]-5,6,7,8-tetrahydrothieno[2,3-b]quinoline-2-carboxamide;formate], the midpoint of the response, the EC50, lay at 1010 nM.

With `CC(C)(C)[C@H]1CCc2nc3sc(C(=O)N[C@H](CCN4C[C@@H](O)[C@@H](O)C4)c4ccc(-c5ccc(=O)[nH]c5)cc4)cc3cc2C1` (racemic) [Example 61, rac-(6S)-6-tert-butyl-N-[rac-(1R)-1-[4-(6-oxo-1H-pyridin-3-yl)phenyl]-3-[rac-(3S,4R)-3,4-dihydroxypyrrolidin-1-ium-1-yl]propyl]-5,6,7,8-tetrahydrothieno[2,3-b]quinoline-2-carboxamide;formate], the EC50 was found to be 1040 nM.

For the compound `CC(C)(C)[C@H]1CCc2nc3sc(C(=O)N[C@H](CCN[C@@H]4C[C@H](CO)[C@@H](O)[C@H]4O)c4ccc(-c5ccc(=O)[nH]c5)cc4)cc3cc2C1` (racemic) [Example 62, [rac-(1R,2S,3R,4R)-2,3-dihydroxy-4-(hydroxymethyl)cyclopentyl]-[rac-(3R)-3-[4-(6-oxo-1H-pyridin-3-yl)phenyl]-3-[rac-(6S)-6-tert-butyl-5,6,7,8-tetrahydrothieno[2,3-b]quinoline-2-carbonyl]amino]propyl] ammonium;formate], the half-maximal effective concentration (EC50) was 1130 nM.

Compound `COC1CCN(CC[C@@H](NC(=O)c2cc3cc4c(nc3s2)CC[C@H](C(C)(C)C)C4)c2ccc(-c3ccc(=O)[nH]c3)cc2)CC1` (racemic) [Example 63, rac-(6S)-6-tert-butyl-N-[rac-(1R)-3-(4-methoxypiperidin-1-ium-1-yl)-1-[4-(6-oxo-1H-pyridin-3-yl)phenyl]propyl]-5,6,7,8-tetrahydrothieno[2,3-b]quinoline-2-carboxamide;formate] had a 50% effective concentration (EC50) of 1190 nM.

`CN1CC(NCC[C@@H](NC(=O)c2cc3cc4c(nc3s2)CC[C@H](C(C)(C)C)C4)c2ccc(-c3ccc(=O)[nH]c3)cc2)C1` (racemic) [Example 64, (1-methylazetidin-3-yl)-[rac-(3R)-3-[4-(6-oxo-1H-pyridin-3-yl)phenyl]-3-[[rac-(6S)-6-tert-butyl-5,6,7,8-tetrahydrothieno[2,3-b]quinoline-2-carbonyl]amino]propyl] ammonium;formate] had an EC50 of 1230 nM.

Compound `CC1(O)CN(CC[C@@H](NC(=O)c2cc3cc4c(nc3s2)CC[C@H](C(C)(C)C)C4)c2ccc(-c3ccc(=O)[nH]c3)cc2)C1` (racemic) [Example 65, rac-(6S)-6-tert-butyl-N-[rac-(1R)-3-(3-hydroxy-3-methyl-azetidin-1-ium-1-yl)-1-[4-(6-oxo-1H-pyridin-3-yl)phenyl]propyl]-5,6,7,8-tetrahydrothieno[2,3-b]quinoline-2-carboxamide;formate] showed a 50% effective concentration (EC50) of 1300 nM.

Consider `COCCN1CCN(CC[C@@H](NC(=O)c2cc3cc4c(nc3s2)CC[C@H](C(C)(C)C)C4)c2ccc(-c3ccc(=O)[nH]c3)cc2)CC1` (racemic) [Example 66, rac-(6S)-6-tert-butyl-N-[rac-(1R)-3-[4-(2-methoxyethyl)piperazin-1-yl]-1-[4-(6-oxo-1H-pyridin-3-yl)phenyl]propyl]-5,6,7,8-tetrahydrothieno[2,3-b]quinoline-2-carboxamide], for which a half-maximal effect (EC50) was put at 1330 nM.

`CC(C)(C)[C@H]1CCc2nc3sc(C(=O)N[C@H](CCNC4CCNC4=O)c4ccc(-c5ccc(=O)[nH]c5)cc4)cc3cc2C1` (mixture of isomers) [Example 67, (2-oxopyrrolidin-3-yl)-[rac-(3R)-3-[4-(6-oxo-1H-pyridin-3-yl)phenyl]-3-[rac-(6S)-6-tert-butyl-5,6,7,8-tetrahydrothieno[2,3-b]quinoline-2-carbonyl]amino]propyl] ammonium;formate] showed an EC50 of 1800 nM.

In the case of `CC(C)(C)[C@H]1CCc2nc3sc(C(=O)N[C@H](CCN4CCC(C#N)CC4)c4ccc(-c5ccc(=O)[nH]c5)cc4)cc3cc2C1` (racemic) [Example 68, rac-(6S)-6-tert-butyl-N-[rac-(1R)-3-(4-cyanopiperidin-1-ium-1-yl)-1-[4-(6-oxo-1H-pyridin-3-yl)phenyl]propyl]-5,6,7,8-tetrahydrothieno[2,3-b]quinoline-2-carboxamide;formate], the EC50 came out at 1810 nM.

Compound `CC(C)(C)[C@H]1CCc2nc3sc(C(=O)N[C@H](CCN[C@H]4COC[C@@H]4O)c4ccc(-c5ccc(=O)[nH]c5)cc4)cc3cc2C1` (racemic) [Example 69, [rac-(3S,4R)-4-hydroxytetrahydrofuran-3-yl]-[rac-(3R)-3-[4-(6-oxo-1H-pyridin-3-yl)phenyl]-3-[[rac-(6S)-6-tert-butyl-5,6,7,8-tetrahydrothieno[2,3-b]quinoline-2-carbonyl]amino]propyl] ammonium;formate] had an EC50 of 1830 nM.

`CN(C)[C@H]1CN(CC[C@@H](NC(=O)c2cc3cc4c(nc3s2)CC[C@H](C(C)(C)C)C4)c2ccc(-c3ccc(=O)[nH]c3)cc2)C[C@@H]1O` (racemic) [Example 70, rac-(6S)-6-tert-butyl-N-[rac-(1R)-1-[4-(6-oxo-1H-pyridin-3-yl)phenyl]-3-[rac-(3S,4S)-3-(dimethylamino)-4-hydroxy-pyrrolidin-1-ium-1-yl]propyl]-5,6,7,8-tetrahydrothieno[2,3-b]quinoline-2-carboxamide;formate] had an EC50 of 1970 nM.

`CC(C)(C)[C@H]1CCc2nc3sc(C(=O)N[C@H](CCN4C[C@H](O)C[C@H]4CO)c4ccc(-c5ccc(=O)[nH]c5)cc4)cc3cc2C1` (racemic) [Example 71, rac-(6S)-6-tert-butyl-N-[rac-(1R)-1-[4-(6-oxo-1H-pyridin-3-yl)phenyl]-3-[rac-(2S,4R)-4-hydroxy-2-(hydroxymethyl)pyrrolidin-1-ium-1-yl]propyl]-5,6,7,8-tetrahydrothieno[2,3-b]quinoline-2-carboxamide;formate] registered an EC50 of 1990 nM.
